Reference: patent US8093243B2, “Hepatitis C virus inhibitors” (Bristol-Myers Squibb Company, priority 2008, dated 2012)
Read-outs that look alike come from different tables or passages of the source.

Tested on: HCV 1b genotype
Test: HCV replicon assay (HCV-neo replicon cells)
Format: cell-based
Conditions: Hepatitis C virus, HCV 1b genotype replicon
Procedure: An HCV Replion assay was utilized in the present disclosure, and was prepared, conducted and validated as described in commonly owned PCT/US2006/022197 and in O'Boyle et. al. Antimicrot Agents Chemother. 2005 April; 49(4):1346-53.
HCV-neo replicon cells were used to test the currently described compound series as well as cells resistant to compound A containing mutations in NS5A (described in application PCT/US2006/022197). The compounds tested were determined to have more than 10-fold less inhibitory activity on cells containing the mutation than wild-type cells indicating a related mechanism of action between the two compound series. Thus, the compounds of the present disclosure can be effective to inhibit the function of the HCV NS5A protein and are understood to be as effective in combinations as previously described in application PCT/US2006/022197 and commonly owned WO 04/014852. Further, the compounds of the present disclosure can be effective against the HCV 1b genotype. It should also be understood that the compounds of the present disclosure can inhibit multiple genotypes of HCV. […] In one embodiment compounds of the present disclosure are active against the 1a, 1b, 2a, 2b, 3a, 4a, and 5a genotypes. Activity ranges are as follows: A=501 nM-1 μM; B 1-500 nM; C=100-999 pM.

Which EC50 (activity range class) does the source give for `CC(C)(C)OC(=O)N1CCC[C@H]1c1ncc(-c2ccc(-c3ccc4ncnc(Nc5ccc(N6CCOCC6)cc5)c4c3)cc2)[nH]1` [Example 1 step e] here?
Its EC50 is 1 to 500 nM.

`c1nc(Nc2ccc(N3CCOCC3)cc2)c2cc(-c3ccc(-c4cnc([C@@H]5CCCN5)[nH]4)cc3)ccc2n1` [Example 1 step f] was tested. Which EC50 (read-out: EC50 Range/Value) did it give?
Its EC50 is 1510 nM.

With `COC(=O)N[C@H](C(=O)N1CCC[C@H]1c1ncc(-c2ccc(-c3ccc4ncnc(Nc5ccc(N6CCOCC6)cc5)c4c3)cc2)[nH]1)C(C)C` [Example 1] as the molecule, how does the EC50 (activity range class) read?
Its EC50 is 1 to 500 nM.

How did the EC50 (activity range class) turn out when `CC(=O)N1CCC[C@H]1c1ncc(-c2ccc(-c3ccc4ncnc(Nc5ccc(N6CCOCC6)cc5)c4c3)cc2)[nH]1` [Example 6] was run?
The EC50 was 501 to 1000 nM.
